According to patent US9084420B2, “Amide derivative, pest control agent containing the amide derivative, and pest controlling method” (Mitsui Chemicals Agro, Inc., priority 2008, dated 2015):

Assays:
Type in all cases: in vivo
Plutella xylostella = test: Pesticidal test against Plutella xylostella (cabbage leaf immersion); settings: 144 h, 3-stage larvae on treated cabbage leaf, 25° C., after 6 days, read-out: pesticidal rate
Experimental: (§1) Pesticidal Test Against Plutella xylostella A piece of a cabbage leaf was immersed for 30 seconds in a chemical solution in which a test compound had been diluted at a predetermined concentration, and air-dried, and then put into a 7 cm polyethylene cup having a filter paper laid on the bottom thereof, and 3-stage larvae of Plutella xylostella were released. They were left to stand in a thermostatic chamber at 25° C., and the numbers of the living pests and the dead pests were examined after 6 days. The test was carried out with five larvae per group in two replicates.

Spodoptera litura [1] = test: Pesticidal test of penetration migration against Spodoptera litura (radish seedling root immersion); settings: 72 h, radish seedling root immersed 2 days, leaf fed to 2-stage larvae, 25° C., after 3 days, read-out: pesticidal rate
Experimental: Pesticidal Test of Penetration Migration against Spodoptera litura A root portion of a radish seedling was immersed for 2 days in a chemical solution in which a test compound had been diluted at a predetermined concentration, then the leaf was cut and put into a 7 cm polyethylene cup having a filter paper laid on the bottom thereof, and 2-stage larvae of Spodoptera litura were released. They were left to stand in a thermostatic chamber at 25° C., and the numbers of the living pests and the dead pests were examined after 3 days. The test was carried out with five larvae per group in two replicates.

Spodoptera litura [2] = test: Pesticidal test against Spodoptera litura (cabbage leaf immersion); settings: 144 h, 2-stage larvae on treated cabbage leaf, 25° C., after 6 days, read-out: pesticidal rate
Experimental: as §1, with “Spodoptera litura” for “Plutella xylostella”, “2-stage” for “3-stage”

Musca domestica = test: Pesticidal test against Musca domestica (petri dish residue); settings: 24 h, acetone solution dried in petri dish, female adults, 25° C., after 1 day, read-out: pesticidal rate
Experimental: Pesticidal Test Against Musca domestica
1 ml of an acetone solution in which a test compound had been diluted at a predetermined concentration was added dropwise to a petri dish having a diameter of 9 cm, and air-dried, and then the female adults of Musca domestica were released and the petri dish was capped. They were left to stand in a thermostatic chamber at 25° C., and the numbers of the living pests and the dead pests were examined after 1 day. The test was carried out with […] in two replicates.

Cc1cc(C(F)(C(F)(F)F)C(F)(F)F)cc(C)c1NC(=O)c1cccc(N(CCC(N)=O)C(=O)c2ccccc2)c1F [1-21, 3-(N-(3-amino-3-oxopropyl)benzamide)-N-(2,6-dimethyl-4-(perfluoropropan-2-yl)phenyl)-2-fluorobenzamide]
pest or weed control at 100 ppm (Plutella xylostella): ≥ 70% | pest or weed control at 1 ppm (Spodoptera litura [1]): ≥ 70% | pest or weed control at 100 ppm (Spodoptera litura [2]): ≥ 70%

NC(=O)CCN(C(=O)c1ccccc1)c1cccc(C(=O)Nc2c(Br)cc(C(F)(C(F)(F)F)C(F)(F)F)cc2Br)c1F [1-163, 3-(N-(3-amino-3-oxopropyl)benzamide)-N-(2,6-dibromo-4-(perfluoropropan-2-yl)phenyl)-2-fluorobenzamide]
pest or weed control at 100 ppm (Plutella xylostella): ≥ 70% | pest or weed control at 1 ppm (Spodoptera litura [1]): ≥ 70% | pest or weed control at 100 ppm (Spodoptera litura [2]): ≥ 70%

NC(=O)CCN(C(=O)c1ccccc1)c1cccc(C(=O)Nc2c(Br)cc(C(F)(C(F)(F)F)C(F)(F)F)cc2C(F)(F)F)c1F [1-171, 3-(N-(3-amino-3-oxopropyl)benzamide)-N-(2-bromo-4-(perfluoropropan-2-yl)-6-(trifluoromethyl)phenyl)-2-fluorobenzamide]
pest or weed control at 100 ppm (Plutella xylostella): ≥ 70% | pest or weed control at 1 ppm (Spodoptera litura [1]): ≥ 70% | pest or weed control at 100 ppm (Spodoptera litura [2]): ≥ 70%

N#Cc1ccc(C(=O)N(CCS(N)(=O)=O)c2cccc(C(=O)Nc3c(Br)cc(C(F)(C(F)(F)F)C(F)(F)F)cc3Br)c2F)cc1 [2-133, 3-(4-cyano-N-(2-sulfamoylethyl)benzamide)-N-(2,6-dibromo-4-(perfluoropropan-2-yl)phenyl)-2-fluorobenzamide]
pest or weed control at 100 ppm (Plutella xylostella): ≥ 70% | pest or weed control at 1 ppm (Spodoptera litura [1]): ≥ 70% | pest or weed control at 100 ppm (Spodoptera litura [2]): ≥ 70%

Cc1cc(C(F)(C(F)(F)F)C(F)(F)F)cc(C)c1NC(=O)c1cccc(N(CCC#N)C(=O)c2ccccc2)c1 [5-8, N-(2-cyanoethyl)-N-(3-(2,6-dimethyl-4-(perfluoropropan-2-yl)phenylcarbamoyl)phenyl)benzamide]
pest or weed control at 100 ppm (Plutella xylostella): ≥ 70% | pest or weed control at 1000 ppm (Musca domestica): ≥ 70% | pest or weed control at 100 ppm (Spodoptera litura [2]): ≥ 70%

COC(=O)CCN(C(=O)c1ccccc1)c1cccc(C(=O)Nc2c(I)cc(C(F)(C(F)(F)F)C(F)(F)F)cc2C(F)(F)F)c1 [5-80, methyl 3-(N-(3-(2-iodo-4-(perfluoropropan-2-yl)-6-(trifluoromethyl)phenylcarbamoyl)phenyl)benzamide)propanoate]
pest or weed control at 100 ppm (Plutella xylostella): ≥ 70% | pest or weed control at 1000 ppm (Musca domestica): ≥ 70% | pest or weed control at 100 ppm (Spodoptera litura [2]): ≥ 70%

CC(=O)CCN(C(=O)c1ccccc1)c1cccc(C(=O)Nc2c(C)cc(C(F)(C(F)(F)F)C(F)(F)F)cc2C)c1 [5-100, N-(3-(2,6-dimethyl-4-(perfluoropropan-2-yl)phenylcarbamoyl)phenyl)-N-(3-oxobutyl)benzamide]
pest or weed control at 100 ppm (Plutella xylostella): ≥ 70% | pest or weed control at 1000 ppm (Musca domestica): ≥ 70% | pest or weed control at 100 ppm (Spodoptera litura [2]): ≥ 70%

C/C(CCN(C(=O)c1ccccc1)c1cccc(C(=O)Nc2c(C)cc(C(F)(C(F)(F)F)C(F)(F)F)cc2C)c1)=N\O [5-105, N-(3-(2,6-dimethyl-4-(perfluoropropan-2-yl)phenylcarbamoyl)phenyl)-N-(3-(hydroxyimino)butyl)benzamide]
pest or weed control at 100 ppm (Plutella xylostella): ≥ 70% | pest or weed control at 1000 ppm (Musca domestica): ≥ 70% | pest or weed control at 100 ppm (Spodoptera litura [2]): ≥ 70%

Cc1cc(C(F)(C(F)(F)F)C(F)(F)F)cc(C)c1NC(=O)c1cccc(N(CCCC(N)=O)C(=O)c2ccccc2)c1 [6-16, N-(4-amino-4-oxobutyl)-N-(3-(2,6-dimethyl-4-(perfluoropropan-2-yl)phenylcarbamoyl)phenyl)benzamide]
pest or weed control at 100 ppm (Plutella xylostella): ≥ 70% | pest or weed control at 1000 ppm (Musca domestica): ≥ 70% | pest or weed control at 100 ppm (Spodoptera litura [2]): ≥ 70%

Cc1cc(C(F)(C(F)(F)F)C(F)(F)F)cc(C)c1N(C)C(=O)c1cccc(N(CC#N)C(=O)c2ccccc2)c1 [6-18, 3-(N-(cyanomethyl)benzamide)-N-(2,6-dimethyl-4-(perfluoropropan-2-yl)phenyl)-N-methylbenzamide]
pest or weed control at 100 ppm (Plutella xylostella): ≥ 70% | pest or weed control at 100 ppm (Spodoptera litura [2]): ≥ 70%

Cc1cc(C(F)(C(F)(F)F)C(F)(F)F)cc(C)c1NC(=O)c1cccc(N(CCCN)C(=O)c2ccccc2)c1 [6-20, N-(3-aminopropyl)-N-(3-(2,6-dimethyl-4-(perfluoropropan-2-yl)phenylcarbamoyl)phenyl)benzamide]
pest or weed control at 100 ppm (Plutella xylostella): ≥ 70% | pest or weed control at 100 ppm (Spodoptera litura [2]): ≥ 70%

CC(C)(C)OC(=O)C(CN(C(=O)c1cccc(C#N)c1)c1cccc(C(=O)Nc2c(Br)cc(C(F)(C(F)(F)F)C(F)(F)F)cc2Br)c1F)C(=O)OC(C)(C)C [6-44, di-tert-butyl 2-((3-cyano-N-(3-(2,6-dibromo-4-(perfluoropropan-2-yl)phenylcarbamoyl)-2-fluorophenyl)benzamide)methyl)malonate]
pest or weed control at 100 ppm (Plutella xylostella): ≥ 70% | pest or weed control at 1000 ppm (Musca domestica): ≥ 70% | pest or weed control at 100 ppm (Spodoptera litura [2]): ≥ 70%

CNC(=O)NCCCN(C(=O)c1ccccc1)c1cccc(C(=O)Nc2c(C)cc(C(F)(C(F)(F)F)C(F)(F)F)cc2C)c1 [6-49, N-(3-(2,6-dimethyl-4-(perfluoropropan-2-yl)phenylcarbamoyl)phenyl)-N-(3-(3-methylureido)propyl)benzamide]
pest or weed control at 100 ppm (Plutella xylostella): ≥ 70% | pest or weed control at 100 ppm (Spodoptera litura [2]): ≥ 70%

Cc1cc(C(F)(C(F)(F)F)C(F)(F)F)cc(C)c1NC(=O)c1cccc(N(CC=O)C(=O)c2ccccc2)c1 [6-59, N-(3-(2,6-dimethyl-4-(perfluoropropan-2-yl)phenylcarbamoyl)phenyl)-N-(2-oxoethyl)benzamide]
pest or weed control at 100 ppm (Plutella xylostella): ≥ 70% | pest or weed control at 100 ppm (Spodoptera litura [2]): ≥ 70%

Cc1cc(C(F)(C(F)(F)F)C(F)(F)F)cc(C)c1N(CCC(N)=O)C(=O)c1cccc(NC(=O)c2ccccc2)c1 [7-1, N-(3-amino-3-oxopropyl)-3-benzamide-N-(2,6-dimethyl-4-(perfluoropropan-2-yl)phenyl)benzamide]
pest or weed control at 100 ppm (Plutella xylostella): ≥ 70% | pest or weed control at 100 ppm (Spodoptera litura [2]): ≥ 70%

Cc1cc(C(F)(C(F)(F)F)C(F)(F)F)cc(C)c1N(CC(N)=O)C(=O)c1cccc(N(C)C(=O)c2ccccc2)c1F [7-220, N-(2-amino-2-oxoethyl)-N-(2,6-dimethyl-4-(perfluoropropan-2-yl)phenyl)-2-fluoro-3-(N-methylbenzamide)benzamide]
pest or weed control at 100 ppm (Plutella xylostella): ≥ 70% | pest or weed control at 100 ppm (Spodoptera litura [2]): ≥ 70%

COC(=O)CN(C(=O)c1cccc(N(C)C(=O)c2ccccc2)c1F)c1c(C)cc(C(F)(C(F)(F)F)C(F)(F)F)cc1C [7-221, methyl 2-(N-(2,6-dimethyl-4-(perfluoropropan-2-yl)phenyl)-2-fluoro-3-(N-methylbenzamide)benzamide)acetate]
pest or weed control at 100 ppm (Plutella xylostella): ≥ 70% | pest or weed control at 100 ppm (Spodoptera litura [2]): ≥ 70%

Cc1cc(C(F)(C(F)(F)F)C(F)(F)F)cc(C)c1N(CC(=O)O)C(=O)c1cccc(N(C)C(=O)c2ccccc2)c1F [7-222, 2-(N-(2,6-dimethyl-4-(perfluoropropan-2-yl)phenyl)-2-fluoro-3-(N-methylbenzamide)benzamide)acetic acid]
pest or weed control at 100 ppm (Plutella xylostella): ≥ 70% | pest or weed control at 100 ppm (Spodoptera litura [2]): ≥ 70%

COC(=O)CN(C(=O)c1ccccc1)c1cccc(C(=O)N(CC(=O)OC)c2c(C)cc(C(F)(C(F)(F)F)C(F)(F)F)cc2C)c1F [8-12, methyl 2-(N-(3((2,6-dimethyl-4-(perfluoropropan-2-yl)phenyl)(2-methoxy-2-oxoethyl)carbamoyl)-2-fluorophenyl)benzamide)acetate]
pest or weed control at 100 ppm (Plutella xylostella): ≥ 70% | pest or weed control at 100 ppm (Spodoptera litura [2]): ≥ 70%
